In PubChem BioAssay AID179 (DTP/NCI, 2004) one finds EC50, IC50 and outcome data, which are given here for 68 molecules.

The subject of this assay is CEM cells HIV-1 protection, formazan growth assay. The assay can be described thus: NCI AIDS Antiviral Assay. As to conditions: for IC50: measured here: growth of uninfected CEM cells. Put shortly: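 Soluble formazan readout of cell growth; CEM cells ± HIV-1; 5 drug concs. ≥50% protection → retest; ≥50% again = moderately active; reproducible 100% = confirmed active.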

Calls of active or inactive are those of the source.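 The calls were made as follows: active = compounds giving half or more protection of infected cells from virus-caused growth loss, again on retest; inactive = the rest.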

In the case of `CN(C)CC/C=C1\c2ccccc2CSc2ccccc21`, the EC50 was above 200 µM and the half-maximal inhibitory concentration (IC50) amounted to 32.4 µM.
As for `O=C(Cc1ccc([N+](=O)[O-])c([N+](=O)[O-])c1CC(=O)C(=O)Nc1cc(Cl)ccc1Cl)C(=O)Nc1cc(Cl)ccc1Cl`, the EC50 was above 47.9 µM and the IC50 is 9.33 µM.
With `CC(C)(C)[C@H]1CO[C@]2(C)[C@@H]3C[C@@H]3C(=O)N12`, the result was inactive.
For the molecule `CN(C)c1ccc(/C=C2\CCc3ccccc3C2=O)cc1Br`, the EC50 is above 10.7 µM and the IC50 is above 10.7 µM.
On to `COC(=O)c1cc(C(=CCCBr)c2cc(Cl)c(OC)c(C(=O)OC)c2)cc(Cl)c1OC`, for which the concentration giving a half-maximal response (EC50) is 16.6 µM and the 50% inhibitory concentration (IC50) came out at 21.9 µM.
On the same counts, the results for `COc1ccc(NC(=O)C(=O)NO)c(OC)c1` are above 537 µM and 234 µM.
Regarding `CCCCCCCCCCCCCC(=O)CSCCNC(=O)CCNC(=O)[C@@H](O)C(C)(C)COP(=O)(O)OP(=O)(O)OCC1OC(n2cnc3c(N)ncnc32)C(O)C1OP(=O)(O)O` (some centres undefined), the result was inactive.
For the molecule `CC(C)N(C(C)C)[PH+]1O[PH+](N(C(C)C)C(C)C)O[PH+](N(C(C)C)C(C)C)O[PH+](N(C(C)C)C(C)C)O[PH+](N(C(C)C)C(C)C)O1.[C-]#[O+].[C-]#[O+].[C-]#[O+].[C-]#[O+].[C-]#[O+].[C-]#[O+].[C-]#[O+].[Cr].[Cr]` (centres undefined), the EC50 was above 25.1 µM and the IC50 is above 25.1 µM.
For the molecule `CC1=C(C(=O)Nc2cccc(C(F)(F)F)c2)C(c2ccc(O)cc2)C(C(=O)Nc2cccc(C(F)(F)F)c2)=C(C)N1`, the EC50 was above 32.4 µM and the IC50 was above 32.4 µM.
As to `O=C(O)CCC(=O)Oc1ccc(O)c2c1CCCC2=O`, the EC50 was above 339 µM and the IC50 was above 339 µM.
Take `Cc1ccccc1NC(=O)C1C(=O)N(c2ccccc2C)C(=O)/C1=N\N` (centres undefined): the outcome was inactive.
Take `CS(=O)(=O)O/N=c1/cc(-c2ccccc2)oc2ccccc12`: the EC50 was above 200 µM and the half-maximal inhibitory concentration (IC50) was above 200 µM.
In the case of `Cc1c(-c2coc(-c3ccc(Cl)cc3)n2)c(=O)n(-c2ccccc2)n1C`, the EC50 was above 51.3 µM and the IC50 was above 51.3 µM.
With `Cc1noc2c1NC(=O)OCC2`, the EC50 is 11 µM and the concentration for half-maximal inhibition (IC50) was found to be 490 µM.
The corresponding values for `CC1(C)NC(c2ccccc2)c2ccsc2-n2cccc21` (centres undefined) are above 200 µM and above 100 µM.
The corresponding values for `CC(Cn1c(=O)oc2ccccc21)N(C)C` (centres undefined) are above 200 µM and above 200 µM.
The corresponding values for `CC(C)(C)N1C[C@H](C(=O)c2ccccc2)[C@@H]1c1ccccc1` are above 33.9 µM and above 33.9 µM.
As for `C=C(CCOC)CCC1CCCCC(=C)[C@H]1OC(C)=O` (some centres undefined), the EC50 was above 200 µM and the IC50 was determined as 107 µM.
The corresponding values for `NC(=O)c1nnsc1-c1ccco1` are above 200 µM and above 200 µM.
Turning to `CCOP(=O)(O)C(Nc1ccc(N=Nc2ccccc2)cc1)c1cccc(C(Nc2ccc(N=Nc3ccccc3)cc2)P(=O)(O)OCC)c1` (centres undefined), the EC50 was above 200 µM and the IC50 worked out at 35.5 µM.
Turning to `O=C(O)C1C(c2ccccc2)C=CC(c2ccccc2)C1C(=O)O` (centres undefined), the outcome was inactive.
For the molecule `N#Cc1c(C[n+]2ccccc2)c2ccccc2oc1=O`, the EC50 was 617 µM and the IC50 is 646 µM.
In the case of `[Pt].c1ccc([PH+](c2ccccc2)c2ccccc2)cc1.c1ccc([PH+](c2ccccc2)c2ccccc2)cc1.c1ccc([PH+](c2ccccc2)c2ccccc2)cc1.c1ccc([PH+](c2ccccc2)c2ccccc2)cc1`, the EC50 is above 11 µM and the IC50 is above 11 µM.
Consider `COC1N(C2C=CC(CO)O2)C(=O)NC(=O)C1(C)I` (centres undefined), for which the half-maximal effective concentration (EC50) was 0.275 µM and the IC50 came to 7.76 µM.
Regarding `COC(=O)[C@H](Cc1ccccc1)NC(=O)N(CCN(CCC#N)C(=O)N[C@H](C(=O)OC)C(C)C)c1ccccc1`, the EC50 was above 200 µM and the 50% inhibitory concentration (IC50) turned out to be 83.2 µM.
On the same counts, the results for `O=C(O)Cc1sc(=O)[nH]c1O` are above 200 µM and above 200 µM.
On to `Cn1c(=O)nc2n(-c3ccc(Cl)cc3)c3cc(Cl)ccc3nc-2c1=O`, for which the outcome was inactive.
Turning to `CNc1nc(=O)c(C#N)c(-c2ccc(C)cc2)s1`, the EC50 was 166 µM and the concentration for half-maximal inhibition (IC50) is above 200 µM.
On the same counts, the results for `Cc1cccc(C)c1NC(=S)N/C=C(\C#N)C(N)=O` are above 200 µM and above 200 µM.
On the same counts, the results for `COc1ccc(CCN2C(=O)C(=O)c3ccccc32)cc1OC` are above 83.2 µM and 47.9 µM.
The corresponding values for `COC(=O)CCCc1c(-c2[nH]c3ccccc3c2CCCC(=O)OC)[nH]c2ccccc12` are above 200 µM and above 200 µM.
On to `Cc1cn(C2CC(O)C(COC(=O)CCCCCCCCCCN=[N+]=[N-])O2)c(=O)[nH]c1=O` (centres undefined), for which the EC50 is above 123 µM and the IC50 was determined as 24 µM.
Take `CCC1=CC2CC(C(=O)OC)C1(N(C)C)C2=O` (centres undefined): the outcome was inactive.
Consider `O=[N+]([O-])c1ccc(-c2noc(-c3ccc(Cl)cc3)c2C2=NCCCN2)cc1`, for which the EC50 was above 35.5 µM and the 50% inhibitory concentration (IC50) was above 35.5 µM.
For `COc1ccc([C@]23CCN(S(=O)(=O)c4ccc(C)cc4)[C@H]2[C@H](CO)C2(CC3)OCC(C)(C)CO2)cc1OC`, the EC50 is above 100 µM and the IC50 was determined as 87.1 µM.
As to `O=C(/C=C1/Nc2ccc([N+](=O)[O-])cc2NC1O)c1cccc([N+](=O)[O-])c1` (centres undefined), the EC50 was above 20.4 µM and the half-maximal inhibitory concentration (IC50) is above 20.4 µM.
As for `O=C(O)CSc1n[nH]c(-c2ccccc2)n1`, the EC50 was above 30.9 µM and the half-inhibitory concentration (IC50) was determined as 7.59 µM.
On the same counts, the results for `COc1ccc(C2c3cc4c(cc3OC3(OC)COC(=O)C23)OCO4)c(OC)c1` (centres undefined) are above 100 µM and 4.68 µM.
For `CC(C)[Si]1(C(C)C)OCC2OC3(CO)C(Oc4nc(=O)ccn43)C2O[Si](C(C)C)(C(C)C)O1` (centres undefined), the EC50 is above 200 µM and the half-inhibitory concentration (IC50) was 18.6 µM.
With `COc1ccc(/C=C2\N=C3N(Cc4ccccc4)C=C(N)N3C2=O)cc1`, the EC50 is above 200 µM and the 50% inhibitory concentration (IC50) is above 200 µM.
For the molecule `CCCCCCCCC1C(C)c2c([nH]c3ccccc23)C2C(=O)N(c3ccccc3)C(=O)C21` (centres undefined), the outcome was inactive.
Same read-out and setting: for `O=S(=O)(c1ccccc1)N1CCC1c1ccccc1` (centres undefined) the value was “inactive”.
Regarding `O=C(O)c1cc(OS(=O)(=O)O)c(OS(=O)(=O)O)c(OS(=O)(=O)O)c1`, the EC50 is above 200 µM and the 50% inhibitory concentration (IC50) was determined as 11.2 µM.
On the same counts, the results for `O=C1/C(=C/c2cccc(O)c2)SC(=S)N1/C=C\c1nc2ccccc2[nH]c1=O` are above 200 µM and 81.3 µM.
Consider `O=c1c2nn3c(=O)n(-c4ccccc4)c(=O)c3nn2c(=O)n1-c1ccccc1`, for which the EC50 was above 200 µM and the concentration for half-maximal inhibition (IC50) is above 200 µM.
Regarding `N=C(N)N`, the EC50 is above 1000 µM and the IC50 was above 1000 µM.
For the molecule `O=C(Nc1ccc(F)cc1)C(=O)C(C1OC(=O)c2ccccc21)[N+](=O)[O-]` (centres undefined), the EC50 was above 692 µM and the IC50 was found to be 355 µM.
For the molecule `CN(C)c1cccc2c(S(=O)(=O)NCCCCCCCCCCCCNS(=O)(=O)c3cccc4c(N(C)C)cccc34)cccc12`, the EC50 was above 200 µM.
For `N#Cc1ccccc1OCCOc1ccccc1C#N`, the EC50 is above 200 µM and the IC50 is above 200 µM.
In the case of `C=C1CC(CNc2cc(Cl)nc(N)n2)C1`, the EC50 is above 200 µM and the 50% inhibitory concentration (IC50) was determined as 55 µM.
Take `O=C(O)c1ccc2c(c1)C(=O)N(c1ccc(Oc3ccc(N4C(=O)c5ccc(C(=O)O)cc5C4=O)cc3)cc1)C2=O`: the result was inactive.
As for `Cc1ccc2c(c1)C(=O)C(Cc1ccccc1C(=O)O)C2` (centres undefined), the EC50 is above 200 µM and the IC50 came out at 178 µM.
The corresponding values for `CC1=C\[C@@H](O)CC(=O)Cc2nc(co2)C(=O)N2CCC=C2C(=O)O[C@H](C(C)C)[C@H](C)/C=C/C(=O)NC\C=C\1` are above 9.77 µM and above 9.77 µM.
The corresponding values for `COC1CC(OC2C(C)OC(OC3C(C)OC(OC4C(C)OC(O[C@H]5CC[C@@]6(C)C(=CC[C@]7(O)[C@@H]6C[C@@H](O)[C@@]6(C)[C@]7(O)CC[C@@]6(O)C(C)=O)C5)CC4OC)CC3OC)CC2OC)OC(C)C1O` (some centres undefined) are above 200 µM and above 200 µM.
With `N=C1OC(CN2CCN(c3ccccc3)CC2)CN1C(=O)Nc1ccccc1` (centres undefined), the EC50 was above 200 µM and the IC50 is above 200 µM.
Consider `[N-]=[N+]=NS(=O)(=O)c1cccc([N+](=O)[O-])c1`, for which the outcome was inactive.
With `Cn1c2ccccc2c2nnc(N/N=C/c3cccs3)nc21`, the EC50 was above 200 µM and the IC50 is above 200 µM.
Take `O=C1C(F)=CC(COC(c2ccccc2)(c2ccccc2)c2ccccc2)OC1n1cc(F)c(=O)[nH]c1=O` (centres undefined): the EC50 is above 2 µM and the IC50 was found to be 0.479 µM.
On the same counts, the results for `COc1cc2c(c(OC3OC(CO)C(O)C(O)C3O)c1)C(=O)CC(c1ccc(O)cc1)O2` (centres undefined) are above 200 µM and 195 µM.
Turning to `Cc1cc(NS(=O)(=O)c2ccc(NC(=O)c3ccc(Cl)c4c(Nc5ccc(S(N)(=O)=O)cc5)c5ccccc5nc34)cc2)no1`, the EC50 was above 38.9 µM and the IC50 is 26.3 µM.
The corresponding values for `O=C(CC(=O)N1N=C(n2ccc3ccccc32)CC1c1ccccc1)Nc1ccccc1Cl` (centres undefined) are above 8.32 µM and above 8.32 µM.
For `O=c1ccc(=O)n(-c2ccc(Br)cc2)[nH]1`, the EC50 is above 26.9 µM and the concentration for half-maximal inhibition (IC50) is above 26.9 µM.
On to `COC1=CC(=O)[C@@]2(OC)C(=O)c3c(cc4cc(O)c(C(O)OC)c(C)c4c3O)C(=O)[C@@]2(O)C1OC1OC(C)C(OC)C(OC)C1OC` (some centres undefined), for which the EC50 was above 93.3 µM and the IC50 was found to be 64.6 µM.
On the same counts, the results for `Cc1ccc(C(=O)C2CC3(CCC2(O)c2ccc(C)cc2)CC(=O)Nc2ccccc2C3=O)cc1` (centres undefined) are above 200 µM and 89.1 µM.
On the same counts, the results for `CCOC(=O)C1Cc2cc(C)c(C)cc2N(C)C1=O` (centres undefined) are above 200 µM and above 200 µM.
Take `CSC1(SC)CCCCCCCCCCC1`: the EC50 is above 200 µM and the IC50 is 158 µM.
For the molecule `Clc1cccc2[nH]ncc12`, the EC50 is above 200 µM and the IC50 is above 100 µM.
As to `N#Cc1c(N)nc(Nc2cccc3ccccc23)c(C#N)c1C#N`, the result was inactive.

What is called EC50 is the concentration needed to bring the measured effect to its halfway point. The term IC50 denotes the concentration at which inhibition is half-maximal. Higher therefore signals weaker potency.
